Measurements from PMC6651024, “LIR Motif-Containing Hyperdisulfide β-Ginkgotide is Cytoprotective, Adaptogenic, and Scaffold-Ready” (Molecules, 2019).
Entries after “also recorded” stand apart in the source; their conditions may differ. Where a SMILES comes first, the peptide text is derived from it. The star is where a group is joined. Cam = NC(=O)C*

Key:
H9c2 cells [1] = experiment: LDH release cytotoxicity assay, H9c2; assay type: cell-based, rat; settings: H9c2, 10 µM peptide, 48 h, 37 °C; LDH kit, 450 nm; triplicates
From the text: (§1) In addition, β-gB1 is non-toxic to Vero and BHK (baby hamster kidney) cell lines based on an MTT assay. […] LDH is a cytoplasmic enzyme which is rapidly released into the cell culture medium upon plasma membrane damage and is widely used as a marker for cytotoxicity. Thus, an LDH-release assay measures the level of plasma membrane damage to a cell population.
(§2) Rat cardio-myoblast cells (H9c2) and […] neuron-like SH-SY5Y cells were purchased from ATCC and maintained in DMEM (Dulbecco’s modified eagle medium) medium supplemented with 10% fetal bovine serum (FBS), 10,000 U/mL of penicillin, and 10,000 µg/mL of streptomycin at 37 °C, 5% CO2.
(§3) An LDH release assay was performed using the CytoSelect™ LDH cytotoxicity assay kit (CBA-241, Cell Biolabs, Inc., San Diego, CA, USA). In brief, cells were cultured in DMEM with or without 10 µM of β-gB1 and S-alkylated β-gB1 (β-gB1Alk) for 48 h at 37 °C and 5% CO2. PBS was used for the vehicle control experiment. The culture medium was transferred and mixed with the LDH assay reagent in a ratio of 9:1. The reaction mixture was incubated at 37 °C for 2 h, and colorimetric quantification was performed using a 450 nm wavelength. The assay was performed in experimental triplicates, and statistical calculations and bar graphs were done using GraphPad Prism software (Version 6.01). […]

pepsin = molecular target: T1, pepsin (Sus scrofa, UniProt P00791); experiment: Enzymatic (proteolytic) stability against pepsin; assay type: in vitro ADME; settings: 37 °C, MALDI-TOF MS and C18 RP-HPLC
T1 construct: purchased Sigma-Aldrich
Experimental: (§4) To assess the proteolytic stability of β-gB1, it was treated with trypsin or pepsin for 6 h. […] Similarly, the S-alkylated β-gB1 was degraded completely by pepsin within 30 min. […] This is in agreement with other plant CRPs that contain a compact structure, whose proteolytic stability was examined up to six hours treatment.
(§5) The folded β-gB1 (28 µg) was added to 100 μL of a 0.1 M ammonium bicarbonate buffer (pH 7.8) containing 800 U/mL of trypsin or 4 mg/mL of pepsin and incubated at 37 °C for 6 h. At each time-point (0, 1, 2, 4, and 6 h), 20 µL of the treated sample was aliquoted and quenched by adding 5 µL of 1 M hydrochloric acid or 0.8 μL of 1 M sodium hydroxide. The reduced β-gB1 was alkylated with iodoacetamide (S-alkylated β-gB1) and used as a control in this study. The reaction mixture was analyzed by MALDI-TOF MS and C18-reversed-phase HPLC to determine its stability.

trypsin = experiment: Enzymatic (proteolytic) stability against trypsin; assay type: in vitro ADME; settings: trypsin, 37 °C, five minute treatment; MALDI-TOF MS and C18 RP-HPLC
Experimental: as §4, §5

SH-SY5Y cells [2] = experiment: LDH release cytotoxicity assay, SH-SY5Y; assay type: cell-based, mouse; settings: 10 µM peptide, 48 h, 37 °C, LDH kit, 450 nm, triplicates
From the text: as §1, §2, §3

H9c2 cells [3] = experiment: MTT-based cell proliferation assay under normoxia, H9c2; parameters: species or system rat; settings: H9c2, 10 µM peptide, 48 h, triplicates
From the text: as §1, §2
(§6) Cells were cultured in DMEM with or without β-gB1/S-alkylated β-gB1 (β-gB1Alk) for 48 h under normoxia, hypoxia, and hypoxia-reoxygenation conditions. Phosphate-buffered saline (PBS) was used as a vehicle control. After 48 h, MTT (3-(4,5-dimethylthiazol-2-yl)-2,5-diphenyltetrazolium bromide) reagent was added with a final concentration of 0.5 mg/mL, and it was incubated at 37 °C for 2 h. The culture medium was then aspirated, and purple formazan crystals were dissolved in DMSO for colorimetric quantification at 570 nm using a microplate reader with a reference wavelength of 630 nm. […]

SH-SY5Y cells [4] = experiment: MTT-based cell proliferation assay under normoxia, SH-SY5Y; parameters: species or system human; settings: 10 µM peptide, 48 h, triplicates
From the text: as §1, §2, §6

T1 sequence (P00791 60-385): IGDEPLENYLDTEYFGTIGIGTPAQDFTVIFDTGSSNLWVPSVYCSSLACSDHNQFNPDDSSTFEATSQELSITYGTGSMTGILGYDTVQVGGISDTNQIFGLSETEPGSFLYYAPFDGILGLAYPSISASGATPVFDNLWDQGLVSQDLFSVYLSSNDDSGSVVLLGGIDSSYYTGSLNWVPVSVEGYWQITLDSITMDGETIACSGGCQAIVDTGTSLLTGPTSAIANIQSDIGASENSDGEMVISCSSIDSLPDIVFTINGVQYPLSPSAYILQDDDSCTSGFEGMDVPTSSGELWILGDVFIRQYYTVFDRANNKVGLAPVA

CC[C@H](C)[C@H](NC(=O)[C@H](CSCC(N)=O)NC(=O)CNC(=O)[C@H](Cc1ccc(O)cc1)NC(=O)[C@H](CCC(=O)O)NC(=O)[C@H](CC(=O)O)NC(=O)[C@H](CC(C)C)NC(=O)[C@H](Cc1ccc(O)cc1)NC(=O)[C@H](CSCC(N)=O)NC(=O)[C@H](CSCC(N)=O)NC(=O)[C@H](CCCNC(=N)N)NC(=O)[C@H](CCCCN)NC(=O)[C@H](CSCC(N)=O)NC(=O)CNC(=O)[C@@H](NC(=O)[C@H](CCC(=O)O)NC(=O)[C@@H](N)Cc1ccc(O)cc1)[C@@H](C)O)C(=O)N[C@@H](CCCNC(=N)N)C(=O)N[C@@H](CSCC(N)=O)C(=O)N[C@@H](CSCC(N)=O)C(=O)O [S-alkylated β-gB1, reference compound] (H-YETGC(Cam)KRC(Cam)C(Cam)YLDEYGC(Cam)IRC(Cam)C(Cam)-OH) was tested, and the “Cytotoxicity / cell-membrane damage by LDH release” value (H9c2 cells [1]) was “no significant cytotoxicity or cell-membrane damaging effects”, the “Time to complete degradation by pepsin” value (pepsin) was ≤ 30 min and the “Degradation by trypsin after five minute treatment” value (trypsin) was “completely degraded”. The “Cytotoxicity / cell-membrane damage by LDH release” value (SH-SY5Y cells [2]) was “no significant cytotoxicity or cell-membrane damaging effects”, the “Cell viability (growth or death) under normoxia” value (H9c2 cells [3]) was “No change in cell viability; also recorded: no significant effect on the growth or death” and the “Cell viability (growth or death) under normoxia” value (SH-SY5Y cells [4]) was “No change in cell viability; also recorded: no significant effect on the growth or death”.
